Laboratory results published in US20090042942A1 (priority 2005, published 2009).

target: T1, human muscarinic acetylcholine M3 receptor (M3-ACh) (Homo sapiens, UniProt P20309); test: biochemical; assay type: binding
T1 construct: expressed in transfected cells; host or cells: CHO-KL (Chinese Hamster Ovary) cells, membranes
T1 sequence (P20309 whole entry): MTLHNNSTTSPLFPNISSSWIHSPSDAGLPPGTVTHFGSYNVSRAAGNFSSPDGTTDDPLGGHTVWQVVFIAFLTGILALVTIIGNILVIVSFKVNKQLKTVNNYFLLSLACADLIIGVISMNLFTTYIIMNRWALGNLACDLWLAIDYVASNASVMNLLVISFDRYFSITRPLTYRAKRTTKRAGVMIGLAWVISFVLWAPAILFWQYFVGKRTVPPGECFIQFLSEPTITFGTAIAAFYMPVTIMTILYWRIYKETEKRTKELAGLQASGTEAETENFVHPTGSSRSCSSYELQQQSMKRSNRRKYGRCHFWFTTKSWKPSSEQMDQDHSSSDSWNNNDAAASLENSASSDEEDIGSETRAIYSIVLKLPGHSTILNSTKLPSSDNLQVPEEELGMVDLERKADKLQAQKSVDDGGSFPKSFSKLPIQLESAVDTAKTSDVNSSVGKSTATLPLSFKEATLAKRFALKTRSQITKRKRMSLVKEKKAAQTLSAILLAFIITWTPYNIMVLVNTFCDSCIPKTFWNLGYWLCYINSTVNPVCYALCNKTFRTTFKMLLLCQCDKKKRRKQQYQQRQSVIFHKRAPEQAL

For `C[C@@](C(=O)O[C@@H]1CCC[N+](C)(C)C1)(c1ccccc1)C1CCCC1` [Example 5, (3R)-3-{[(2S)-2-Cyclopentyl-2-phenylpropanoyl]oxy}-1,1-dimethylpiperidinium iodide], which IC50 is on record?
The IC50 was 1.26 nM.

For `C[C@@](C(=O)O[C@H]1CCC[N+](C)(C)C1)(c1ccccc1)C1CCCC1` [Example 6, (3S)-3-{[(2S)-2-Cyclopentyl-2-phenylpropanoyl]oxy}-1,1-dimethylpiperidinium iodide], which IC50 is on record?
Its IC50 is 20 nM.

For `CN1CC[C@H](OC(=O)[C@@](C)(c2ccccc2)C2CCCC2)C1` [Example 1f, (3S)-1-Methylpyrrolidin-3-yl (2R)-2-cyclopentyl-2-phenylpropanoate], which IC50 is on record?
Its IC50 is 20 nM.

How did the IC50 turn out when `CN1CC[C@H](OC(=O)[C@](C)(c2ccccc2)C2CCCC2)C1` [Example 3c, (3S)-1-Methylpyrrolidin-3-yl (2S)-2-cyclopentyl-2-phenylpropanoate] was run?
The IC50 was 3.16 nM.

How did the IC50 turn out when `CN1CC[C@@H](OC(=O)[C@](C)(c2ccccc2)C2CCCC2)C1` [Example 4a, (3R)-1-Methylpyrrolidin-3-yl (2S)-2-cyclopentyl-2-phenylpropanoate] was run?
The IC50 was 0.794 nM.

`CN1CC[C@@H](OC(=O)[C@@](C)(c2ccccc2)C2CCCC2)C1` [Example 2a, (3R)-1-Methylpyrrolidin-3-yl (2R)-2-cyclopentyl-2-phenylpropanoate] was tested. Which IC50 did it give?
The IC50 was 7.94 nM.
